Test results published in PubChem BioAssay (NCI).
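Exposure lasted 48 hours, with cells grown in 96-well plates and compounds tested at five concentrations. TGI marks complete inhibition of growth.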

Columns and labels:
Assay in all cases: growth of human tumour cells (NCI), 48 h
HCC-2998 colon = tested on: HCC-2998 colon
OVCAR-3 ovarian = tested on: OVCAR-3 ovarian
MALME-3M melanoma = tested on: MALME-3M melanoma
U251 CNS = tested on: U251 CNS
TK-10 renal = tested on: TK-10 renal
LOX IMVI melanoma = tested on: LOX IMVI melanoma
HOP-62 NSCLC = tested on: HOP-62 NSCLC
ACHN renal = tested on: ACHN renal
UACC-257 melanoma = tested on: UACC-257 melanoma
COLO 205 colon = tested on: COLO 205 colon
NCI-H460 lung = tested on: NCI-H460 lung
SNB-75 CNS = tested on: SNB-75 CNS
IGROV1 ovarian = tested on: IGROV1 ovarian
SK-OV-3 ovarian = tested on: SK-OV-3 ovarian
SK-MEL-2 melanoma = tested on: SK-MEL-2 melanoma
CAKI-1 renal = tested on: CAKI-1 renal
SK-MEL-5 melanoma = tested on: SK-MEL-5 melanoma
OVCAR-8 ovarian = tested on: OVCAR-8 ovarian
MOLT-4 leukemia = tested on: MOLT-4 leukemia
DLD-1 colon = tested on: DLD-1 colon
SW-620 colon = tested on: SW-620 colon
OVCAR-4 ovarian = tested on: OVCAR-4 ovarian
OVCAR-5 ovarian = tested on: OVCAR-5 ovarian
SNB-78 CNS = tested on: SNB-78 CNS
SNB-19 CNS = tested on: SNB-19 CNS
HCT-15 colon = tested on: HCT-15 colon
A549 NSCLC = tested on: A549 NSCLC
LXFL 529 NSCLC = tested on: LXFL 529 NSCLC
XF 498 CNS = tested on: XF 498 CNS
UO-31 renal = tested on: UO-31 renal
UACC-62 melanoma = tested on: UACC-62 melanoma
M14 melanoma = tested on: M14 melanoma
DMS 273 small cell lung = tested on: DMS 273 small cell lung
KM20L2 colon = tested on: KM20L2 colon
SF-539 CNS = tested on: SF-539 CNS
SF-268 CNS = tested on: SF-268 CNS
HT29 colon = tested on: HT29 colon
M19-MEL melanoma = tested on: M19-MEL melanoma
KM12 colon = tested on: KM12 colon
CCRF-CEM leukemia = tested on: CCRF-CEM leukemia
SF-295 CNS = tested on: SF-295 CNS
K-562 leukemia = tested on: K-562 leukemia
SK-MEL-28 melanoma = tested on: SK-MEL-28 melanoma
786-0 renal = tested on: 786-0 renal
RPMI-8226 leukemia = tested on: RPMI-8226 leukemia
A498 renal = tested on: A498 renal
NCI-H23 lung = tested on: NCI-H23 lung
SN12C renal = tested on: SN12C renal
EKVX NSCLC = tested on: EKVX NSCLC
DMS 114 small cell lung = tested on: DMS 114 small cell lung
HCT-116 colon = tested on: HCT-116 colon
SR leukemia = tested on: SR leukemia
NCI-H522 lung = tested on: NCI-H522 lung
HL-60(TB) leukemia = tested on: HL-60(TB) leukemia
NCI-H226 lung = tested on: NCI-H226 lung
HOP-92 NSCLC = tested on: HOP-92 NSCLC
HOP-18 NSCLC = tested on: HOP-18 NSCLC

With `NC1=NC(=O)C(CC(=O)Nc2ccc(Cl)cc2Cl)S1` (stereo unspecified) the TGI (HCC-2998 colon) was greater than 100 µM, the TGI (OVCAR-3 ovarian) was greater than 100 µM and the TGI (MALME-3M melanoma) was greater than 100 µM. For the same compound, the TGI (U251 CNS) was greater than 100 µM, the TGI (TK-10 renal) was greater than 100 µM and the TGI (LOX IMVI melanoma) was greater than 100 µM. For the same compound, the TGI (HOP-62 NSCLC) was greater than 100 µM, the TGI (ACHN renal) was greater than 100 µM and the TGI (UACC-257 melanoma) was greater than 100 µM. It also gave a TGI (COLO 205 colon) greater than 100 µM, a TGI (NCI-H460 lung) greater than 100 µM and a TGI (SNB-75 CNS) greater than 100 µM. It also gave a TGI (IGROV1 ovarian) greater than 100 µM, a TGI (SK-OV-3 ovarian) greater than 100 µM and a TGI (SK-MEL-2 melanoma) greater than 100 µM. The TGI (CAKI-1 renal) was greater than 100 µM, the TGI (SK-MEL-5 melanoma) was greater than 100 µM and the TGI (OVCAR-8 ovarian) was greater than 100 µM. The TGI (MOLT-4 leukemia) was greater than 100 µM, the TGI (DLD-1 colon) was greater than 100 µM and the TGI (SW-620 colon) was greater than 100 µM. The TGI (OVCAR-4 ovarian) was greater than 100 µM, the TGI (OVCAR-5 ovarian) was greater than 100 µM and the TGI (SNB-78 CNS) was greater than 100 µM. For the same compound, the TGI (SNB-19 CNS) was greater than 100 µM, the TGI (HCT-15 colon) was greater than 100 µM and the TGI (A549 NSCLC) was greater than 100 µM. For the same compound, the TGI (LXFL 529 NSCLC) was greater than 100 µM, the TGI (XF 498 CNS) was greater than 100 µM and the TGI (UO-31 renal) was greater than 100 µM. The TGI (UACC-62 melanoma) was greater than 100 µM, the TGI (M14 melanoma) was greater than 100 µM and the TGI (DMS 273 small cell lung) was greater than 100 µM. For the same compound, the TGI (KM20L2 colon) was greater than 100 µM, the TGI (SF-539 CNS) was greater than 100 µM and the TGI (SF-268 CNS) was greater than 100 µM. For the same compound, the TGI (HT29 colon) was greater than 100 µM, the TGI (M19-MEL melanoma) was greater than 100 µM and the TGI (KM12 colon) was greater than 100 µM. For the same compound, the TGI (CCRF-CEM leukemia) was greater than 100 µM, the TGI (SF-295 CNS) was greater than 100 µM and the TGI (K-562 leukemia) was greater than 100 µM. The TGI (SK-MEL-28 melanoma) was greater than 100 µM, the TGI (786-0 renal) was greater than 100 µM and the TGI (RPMI-8226 leukemia) was greater than 100 µM. It also gave a TGI (A498 renal) greater than 100 µM, a TGI (NCI-H23 lung) greater than 100 µM and a TGI (SN12C renal) greater than 100 µM. For the same compound, the TGI (EKVX NSCLC) was greater than 100 µM.

`CCOC(=O)/C(I)=C/c1cc(OC)c(OC)c(OC)c1` was tested, and the TGI (HCC-2998 colon) was 27.8 µM, the TGI (OVCAR-3 ovarian) was 14.1 µM and the TGI (DMS 114 small cell lung) was 9.49 µM. It also gave a TGI (MALME-3M melanoma) of 26.2 µM, a TGI (U251 CNS) of 18.3 µM and a TGI (TK-10 renal) of 35.1 µM. The TGI (LOX IMVI melanoma) was 5.01 µM, the TGI (HOP-62 NSCLC) was 96.1 µM and the TGI (ACHN renal) was 28.2 µM. For the same compound, the TGI (UACC-257 melanoma) was 25.7 µM, the TGI (COLO 205 colon) was 18.2 µM and the TGI (NCI-H460 lung) was greater than 100 µM. For the same compound, the TGI (SNB-75 CNS) was greater than 100 µM, the TGI (HCT-116 colon) was 12.5 µM and the TGI (IGROV1 ovarian) was 93.7 µM. The TGI (SK-OV-3 ovarian) was greater than 100 µM, the TGI (SK-MEL-2 melanoma) was greater than 100 µM and the TGI (CAKI-1 renal) was 16.3 µM. The TGI (SR leukemia) was 8.8 µM, the TGI (SK-MEL-5 melanoma) was 24.5 µM and the TGI (OVCAR-8 ovarian) was 38.8 µM. The TGI (MOLT-4 leukemia) was 40.3 µM, the TGI (DLD-1 colon) was 35.2 µM and the TGI (SW-620 colon) was 11.6 µM. The TGI (OVCAR-4 ovarian) was 52.4 µM, the TGI (NCI-H522 lung) was 12.9 µM and the TGI (OVCAR-5 ovarian) was 20 µM. The TGI (SNB-78 CNS) was greater than 100 µM, the TGI (SNB-19 CNS) was 31.8 µM and the TGI (HCT-15 colon) was 17.1 µM. The TGI (HL-60(TB) leukemia) was 26.1 µM, the TGI (A549 NSCLC) was 22.5 µM and the TGI (LXFL 529 NSCLC) was 26.8 µM. It also gave a TGI (XF 498 CNS) of 27.5 µM, a TGI (UO-31 renal) of 19.1 µM and a TGI (UACC-62 melanoma) of 16.1 µM. It also gave a TGI (M14 melanoma) of 14.7 µM, a TGI (DMS 273 small cell lung) of 22.7 µM and a TGI (KM20L2 colon) of 12.4 µM. For the same compound, the TGI (SF-539 CNS) was greater than 100 µM, the TGI (SF-268 CNS) was 6.73 µM and the TGI (HT29 colon) was 15.1 µM. The TGI (M19-MEL melanoma) was 19.3 µM, the TGI (KM12 colon) was 19.2 µM and the TGI (NCI-H226 lung) was 25.9 µM. It also gave a TGI (CCRF-CEM leukemia) of 8.6 µM, a TGI (SF-295 CNS) of 54.4 µM and a TGI (K-562 leukemia) greater than 100 µM. It also gave a TGI (SK-MEL-28 melanoma) of 7.88 µM, a TGI (786-0 renal) of 33 µM and a TGI (RPMI-8226 leukemia) of 21.1 µM. It also gave a TGI (A498 renal) of 91.3 µM, a TGI (NCI-H23 lung) of 14.1 µM and a TGI (HOP-92 NSCLC) of 27.1 µM. It also gave a TGI (SN12C renal) of 24.6 µM, a TGI (HOP-18 NSCLC) of 24 µM and a TGI (EKVX NSCLC) of 42.9 µM.
